The target in experiment [1] is T1, recombinant human TTLL4 catalytic domain (Homo sapiens, UniProt Q14679).
T1 construct: TTLL4 catalytic domain (composed of residues 561-1199); made in house; host or cells: E. coli
T1 sequence (Q14679 561-1199): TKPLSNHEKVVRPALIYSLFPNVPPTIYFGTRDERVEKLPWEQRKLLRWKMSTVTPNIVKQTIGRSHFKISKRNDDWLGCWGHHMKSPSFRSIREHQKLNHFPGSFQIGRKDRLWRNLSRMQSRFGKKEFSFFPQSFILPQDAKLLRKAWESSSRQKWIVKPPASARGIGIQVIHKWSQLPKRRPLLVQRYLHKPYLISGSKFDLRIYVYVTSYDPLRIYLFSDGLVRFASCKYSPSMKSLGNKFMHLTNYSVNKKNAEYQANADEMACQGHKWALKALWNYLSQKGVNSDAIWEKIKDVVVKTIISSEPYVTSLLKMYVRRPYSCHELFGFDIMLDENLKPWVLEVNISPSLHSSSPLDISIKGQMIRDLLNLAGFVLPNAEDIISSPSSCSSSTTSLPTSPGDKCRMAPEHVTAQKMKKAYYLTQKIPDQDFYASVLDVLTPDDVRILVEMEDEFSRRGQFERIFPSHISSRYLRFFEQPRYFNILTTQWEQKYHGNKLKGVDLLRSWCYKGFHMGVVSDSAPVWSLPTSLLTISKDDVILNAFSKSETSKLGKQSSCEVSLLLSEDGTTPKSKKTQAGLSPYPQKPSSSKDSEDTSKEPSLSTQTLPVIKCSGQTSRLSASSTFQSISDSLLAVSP
As to the kind of experiment: TTLL4 activity immunoassay (anti-glu immuno-detection of glutamylated Nap2 substrate). In kind it is biochemical. Particulars: 0.2 millimolar ATP, 1 millimolar glutamic acid, 30° C., 10 minutes, read-out: in vitro TTLL4 IC50. As for the experimental part:
To measure TTLL4 activity and inhibition by lead compounds, we used an immunoassay. The antibody against mono-glutamate-glutamylation was prepared by immunizing white rabbits with the following peptide: MY {Glu (Glu)} DDEEESEAQGPKC (based on studies published here: doi: 10.1016/S0091-679X (10) 95003-6). The serum was purified by cross-adsorption against a non-glutamylated peptide: MYEDDEEESEAQGPKC. The purified antibody was stored in PBS with 0.02% Preclin 300. The final ELISA titer from the purified antibodies against the glutamylated peptide was >1:512,000. These antibodies are noted as “anti-glu”.
To measure activity, recombinant human TTLL4 catalytic domain (composed of residues 561-1199) was produced in E. coli and purified via nickel-affinity and size exclusion column (Superdex 200) chromatography. Similarly, the glutamate-glutamylation substrate Nap2 (gene from Xenopus tropicalis) was produced in E. coli and purified via nickel-affinity size exclusion column (Superdex 200) chromatography. […] Intensity measurements were quantified with the Microar-ray Profile plugin for FIJI/ImageJ and analyzed with a 4-parameter model in Graphpad Prism v9.

Experiment [2] relates to OCI-AML3 human cell line (degron-inducible NPM1c). As to the kind of experiment: NPM1c degradation in OCI-AML3 NPM1c-degron cells, glutamate-glutamylation by Western blot. In kind it is cell-based. As for the experimental part: FIGS. 3A and 3B illustrate that TTLL4 catalyzes NPM1 and NPM1c glutamate-glutamylation. FIG. 3A is a Western blot of an AML3-NPM1c-degron cell line with a doxycycline (DOX)-inducible TTLL4 shRNA knockdown. Scrambled shRNA or TTLL4 shRNA cells were treated +/−DOX, resulting in loss of glutamate-glutamylation on both NPM1c-degron and NPM1 wild type proteins (top gel, +DOX). FIG. 3B is a summary of a qRT-PCR analysis of shTTLL4 cells treated with DOX.
A doxycycline-inducible TTLL4 shRNA was introduced to this cell line. TTLL4kd eliminated NPM1c glutamate-glutamylation and reduced cellular proliferation (FIGS. 3A, 3B, and 4A). In addition, CRISPR-Cas9 mediated knockout of TTLL4 in OCI-AML3 cells reduced colony formation in methylcellulose (FIG. 4B, methylcellulose colony forming assays are used to detect cell proliferation and hematopoietic/progenitor activity) and increased apoptosis (FIG. 4C).
In general terms: A western blot detects proteins with antibodies after separation by electrophoresis.

Usually IC50 stands for the concentration at which inhibition is half-maximal. `O=C(Cn1c(=O)c(F)cn(C2CCCO2)c1=O)N1N=C(c2ccc(Cl)cc2)CC1c1ccco1` (stereo not drawn) [Candidate 2]: the half-maximal inhibitory concentration (IC50) in experiment [1] worked out at 40 µM.

As for `COc1ccc(-c2cc3c(SCC(=O)Nc4c(C)cc(C)cc4C)nccn3n2)cc1` [Candidate 1], the IC50 in experiment [1] came to 9 µM.

As for `CC[C@H](C(=O)N1CCCC[C@H]1C(=O)O[C@H](CCc1ccc(OC)c(OC)c1)c1ccccc1OCC(=O)NCCCCCCOc1cccc2c1C(=O)N(C1CCC(=O)NC1=O)C2=O)c1cc(OC)c(OC)c(OC)c1` (stereo partly drawn) [dTAG-13], in experiment [2], the “glutamate-glutamylation of the NPM1 wt protein after degradation of NPM1c” value is recorded as “loss of glutamate-glutamylation of the NPM1 wt protein”.

These data come from patent US20250360126A1, “TARGETING AN ENZYME REQUIRED FOR ACUTE MYELOID LEUKEMIA” (Albert Einstein College of Medicine, priority 2023, published 2025).
